Experimental data: the supplement of paper PMC11451515

Tested on: NOMO1
Test: cell viability relative to DMSO control; higher = less cytotoxic
Conditions: 48 h
Method in brief: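 Viability, reported as a per-plate percentage of DMSO wells with cell-free wells as background, came from CellTiter-Glo One luminescence. Reading took place after 48 h at 37°C. Before that, NOMO1 or SEM (500 cells/well) or P12-Ichikawa (1000 cells/well) leukemia cells, adapted for at least four passages in each medium, were seeded in 1536-well plates (5 μl) and pin-dosed with library compounds in DMSO, 47 μM to 0.79 nM over 11 threefold points.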

[1] = HPLM + 10% dialyzed FBS, 0.000781 µM
[2] = HPLM + 10% dialyzed FBS, 0.00234 µM
[3] = HPLM + 10% dialyzed FBS, 0.00702 µM
[4] = HPLM + 10% dialyzed FBS, 0.0211 µM
[5] = HPLM + 10% dialyzed FBS, 0.0632 µM
[6] = HPLM + 10% dialyzed FBS, 0.19 µM
[7] = HPLM + 10% dialyzed FBS, 0.569 µM
[8] = HPLM + 10% dialyzed FBS, 1.71 µM
[9] = HPLM + 10% dialyzed FBS, 5.12 µM
[10] = HPLM + 10% dialyzed FBS, 15.4 µM
[11] = HPLM + 10% dialyzed FBS, 46.1 µM
[12] = RPMI 5 mM glucose + 10% FBS, 0.000781 µM
[13] = RPMI 5 mM glucose + 10% FBS, 0.00234 µM
[14] = RPMI 5 mM glucose + 10% FBS, 0.00702 µM
[15] = RPMI 5 mM glucose + 10% FBS, 0.0211 µM
[16] = RPMI 5 mM glucose + 10% FBS, 0.0632 µM
[17] = RPMI 5 mM glucose + 10% FBS, 0.19 µM
[18] = RPMI 5 mM glucose + 10% FBS, 0.569 µM
[19] = RPMI 5 mM glucose + 10% FBS, 1.71 µM
[20] = RPMI 5 mM glucose + 10% FBS, 5.12 µM
[21] = RPMI 5 mM glucose + 10% FBS, 15.4 µM
[22] = RPMI 5 mM glucose + 10% FBS, 46.1 µM
[23] = RPMI 5 mM glucose + 10% dialyzed FBS, 0.000781 µM
[24] = RPMI 5 mM glucose + 10% dialyzed FBS, 0.00234 µM
[25] = RPMI 5 mM glucose + 10% dialyzed FBS, 0.00702 µM
[26] = RPMI 5 mM glucose + 10% dialyzed FBS, 0.0211 µM
[27] = RPMI 5 mM glucose + 10% dialyzed FBS, 0.0632 µM
[28] = RPMI 5 mM glucose + 10% dialyzed FBS, 0.19 µM
[29] = RPMI 5 mM glucose + 10% dialyzed FBS, 0.569 µM
[30] = RPMI 5 mM glucose + 10% dialyzed FBS, 1.71 µM
[31] = RPMI 5 mM glucose + 10% dialyzed FBS, 5.12 µM
[32] = RPMI 5 mM glucose + 10% dialyzed FBS, 15.4 µM
[33] = RPMI 5 mM glucose + 10% dialyzed FBS, 46.1 µM

Compound | cell viability [1] | cell viability [2] | cell viability [3] | cell viability [4] | cell viability [5] | cell viability [6] | cell viability [7] | cell viability [8] | cell viability [9] | cell viability [10] | cell viability [11] | cell viability [12] | cell viability [13] | cell viability [14] | cell viability [15] | cell viability [16] | cell viability [17] | cell viability [18] | cell viability [19] | cell viability [20] | cell viability [21] | cell viability [22] | cell viability [23] | cell viability [24] | cell viability [25] | cell viability [26] | cell viability [27] | cell viability [28] | cell viability [29] | cell viability [30] | cell viability [31] | cell viability [32] | cell viability [33]
O=C(CCCN1CCC(O)(c2ccc(Cl)cc2)CC1)c1ccc(F)cc1 | 115% | 119% | 108% | 111% | 114% | 133% | 135% | 129% | 126% | 110% | 91.7% | 95.3% | 106% | 101% | 109% | 128% | 117% | 110% | 119% | 102% | 110% | 82.1% | 115% | 121% | 114% | 110% | 125% | 115% | 120% | 116% | 122% | 117% | 82.5%
CC(C)[C@H]1C(=O)N[C@H](CO)Cc2c[nH]c3cccc(c23)N1C | 104% | 98.3% | 106% | 111% | 125% | 128% | 112% | 75.8% | 50.6% | 47.2% | 45% | 96.2% | 103% | 112% | 104% | 111% | 119% | 99.7% | 77.7% | 67.9% | 51.1% | 46.7% | 81.7% | 94.4% | 93.2% | 93.2% | 97.5% | 120% | 100% | 69.5% | 71.1% | 56% | 47.4%
COc1cccc(OC)c1-c1cc(C(=O)NC2(C(=O)O)C3CC4CC(C3)CC2C4)nn1-c1ccnc2cc(Cl)ccc12 (stereo unspecified) | 129% | 111% | 125% | 135% | 119% | 123% | 102% | 118% | 116% | 111% | 98.9% | 102% | 99.6% | 97.9% | 109% | 99.7% | 100% | 104% | 97.3% | 104% | 107% | 90.8% | 104% | 116% | 108% | 109% | 113% | 104% | 101% | 95.2% | 108% | 91% | 105%
CC(C)(C)NCC(O)c1ccc(O)c(CO)c1 (stereo unspecified) | 100% | 109% | 109% | 132% | 119% | 114% | 107% | 70.5% | 55.5% | 47.8% | 44.7% | 102% | 98.3% | 105% | 106% | 112% | 99.9% | 107% | 79.2% | 78.1% | 64.7% | 51.4% | 102% | 109% | 115% | 114% | 110% | 110% | 92.8% | 76.7% | 65.3% | 70.7% | 47%
CC1(C)CCC(C)(C)c2cc(NC(=O)c3ccc(C(=O)O)cc3)ccc21 | 91.4% | 91% | 98.5% | 111% | 101% | 100% | 98.1% | 109% | 79.9% | 92.9% | 60.7% | 85.7% | 90.6% | 89.8% | 97.5% | 95.4% | 97.3% | 99.8% | 101% | 98.5% | 94.4% | 76.1% | 99.8% | 91.9% | 91.3% | 89.8% | 97.7% | 90.2% | 95.3% | 93% | 88.2% | 84.5% | 75.9%
C[C@@H]1CC[C@@]2(CC[C@]3(C)\C(=C/C[C@@H]4[C@@]5(C)C[C@@H](O)[C@H](O)[C@@](C)(CO)[C@@H]5CC[C@@]34C)[C@@H]2[C@H]1C)C(O)=O | 120% | 127% | 121% | 109% | 109% | 123% | 123% | 106% | 138% | 120% | 130% | 104% | 99.9% | 117% | 107% | 101% | 104% | 110% | 114% | 109% | 119% | 117% | 104% | 119% | 120% | 115% | 122% | 111% | 125% | 108% | 120% | 114% | 120%
Cc1cccc(-c2[nH]c(C(C)(C)C)nc2-c2ccc3nccnc3c2)n1 | 113% | 135% | 110% | 117% | 111% | 133% | 123% | 128% | 112% | 114% | 47% | 133% | 121% | 117% | 124% | 123% | 98.2% | 124% | 106% | 106% | 114% | 96.6% | 119% | 112% | 122% | 108% | 113% | 119% | 120% | 118% | 112% | 98.2% | 51.4%
